Data reported in patent US20140262858A1, “PACKAGING FOR ALITRETINOIN” (RANBAXY LABORATORIES LIMITED, priority 2011, published 2014).
Values joined by “and” are separate entries in the source; they are usually repeats but may differ in a detail not shown here. Equal values may be shown once.

Assays:
[1] = in the presence of oxygen; cited from earlier work
[2] = Stability study of alitretinoin at 25±2° C./60±5% RH in vacuum-sealed pack in the presence of oxygen absorber (Stabilox) and silica gel desiccant; assay type: physicochemical; design: 4-Hydroxy alitretinoin impurity / 5,6-Epoxy alitretinoin impurity / Total related substances / 4-Oxo-alitretinoin impurity: unit not given here; details: for 4-Hydroxy alitretinoin impurity / 4-Oxo-alitretinoin impurity / 5,6-Epoxy alitretinoin impurity / Total related substances: with oxygen absorber and silica gel desiccant
Description: (§1) Stability studies of alitretinoin were conducted by loading alitretinoin samples at various stability conditions, for example, at 25±2° C./60±5% relative humidity (RH) and 40±2° C./75±5% RH in the absence or presence of an oxygen absorber and a silica desiccant for 1 month, 2 months, 3 months, or 6 months. The stability studies were performed on a stability incubator (for accelerated stability studies, Hotpack was used and for real time stability studies, NuAire® was used). The degradation products were identified using an Agilent® 1100 series HPLC system.
Alitretinoin was packed in a LDPE bag. The bag was twisted and tied with a plastic fastener under nitrogen. The LDPE bag was placed into a middle bag of polyester/LDPE along with an oxygen absorber. A vacuum was applied to the middle bag and then it was heat sealed. The sealed middle bag was packed into a polyester/aluminum/polyester/LDPE bag along with silica gel as a desiccant. Vacuum was applied to this bag and it was then heat sealed. The vacuum-sealed pack was loaded on stability at 25±2° C. and 60±5% RH.

[3] = Stability study of alitretinoin at 40±2° C./75±5% RH in vacuum-sealed pack in the presence of oxygen absorber (Stabilox) and silica gel desiccant; assay type: physicochemical; design: 4-Hydroxy alitretinoin impurity / 5,6-Epoxy alitretinoin impurity / Total related substances / 4-Oxo-alitretinoin impurity: unit not given here; details: for 4-Oxo-alitretinoin impurity / 5,6-Epoxy alitretinoin impurity / Total related substances / 4-Hydroxy alitretinoin impurity: with oxygen absorber and silica gel desiccant
Description: as §1
Alitretinoin was packed in a LDPE bag; the bag was twisted and tied with a plastic fastener under nitrogen. It was placed into a middle bag of polyester/LDPE along with an oxygen absorber. Vacuum was applied to the middle bag and then it was heat sealed. This sealed middle bag was packed into a polyester/aluminum/polyester/LDPE bag along with silica gel as a desiccant. Vacuum was applied to this bag and then it was heat sealed. The vacuum-sealed pack was loaded on stability at 40±2° C. and 75±5% RH.

[4] = Stability study of alitretinoin in vacuum-sealed pack in the absence of oxygen absorber and silica gel desiccant (HPLC impurities); assay type: physicochemical; details: Initial; no oxygen absorber, no silica gel desiccant
Description: as §1
Alitretinoin was packed in a LDPE bag. The bag was twisted and tied with a plastic fastener under nitrogen. The LDPE bag was placed into a middle bag of polyester/LDPE and vacuum was applied to the middle bag and then it was heat sealed. The sealed middle bag was packed into a polyester/aluminum/polyester/LDPE bag. Vacuum was applied to this bag and then it was heat sealed. The vacuum-sealed pack was loaded on stability at stations 40±2° C. and 75±5% RH (accelerated) and 25±2° C. and 60±5% RH.

4-Hydroxy alitretinoin impurity ([2]; 3M/25 ± 2° C./60 ± 5% RH): 0.003
4-Oxo-alitretinoin impurity ([2]; 3M/25 ± 2° C./60 ± 5% RH): 0.003 and 0.002
5,6-Epoxy alitretinoin impurity ([2]; 3M/25 ± 2° C./60 ± 5% RH): 0.008 and 0.005
Total related substances ([2]; 3M/25 ± 2° C./60 ± 5% RH): 0.198 and 0.195 and 0.179
4-Hydroxy alitretinoin impurity ([2]; 6M/25 ± 2° C./60 ± 5% RH): 0.002 and 0.003
4-Oxo-alitretinoin impurity ([2]; 6M/25 ± 2° C./60 ± 5% RH): 0.004 and 0.003
5,6-Epoxy alitretinoin impurity ([2]; 6M/25 ± 2° C./60 ± 5% RH): 0.006 and 0.008 and 0.005
Total related substances ([2]; 6M/25 ± 2° C./60 ± 5% RH): 0.183 and 0.193 and 0.167
Change in oxidative impurities on storage ([2]; 25±2° C./60±5% RH (Table 2), in the presence of an oxygen absorber and a silica gel desiccant): no increase in oxidative impurities
4-Hydroxy alitretinoin impurity ([2]; Initial): 0.002
4-Oxo-alitretinoin impurity ([2]; Initial): 0.002 and 0.003
5,6-Epoxy alitretinoin impurity ([2]; Initial): 0.006 and 0.009
Total related substances ([2]; Initial): 0.165 and 0.189 and 0.173
4-Oxo-alitretinoin impurity ([3]; 1M/40 ± 2° C./75 ± 5% RH): 0.004 and 0.003
5,6-Epoxy alitretinoin impurity ([3]; 1M/40 ± 2° C./75 ± 5% RH): 0.008 and 0.006
Total related substances ([3]; 1M/40 ± 2° C./75 ± 5% RH): 0.173 and 0.182 and 0.160
4-Hydroxy alitretinoin impurity ([3]; 2M/40 ± 2° C./75 ± 5% RH): 0.003 and 0.002 and 0.004
4-Oxo-alitretinoin impurity ([3]; 2M/40 ± 2° C./75 ± 5% RH): 0.003 and 0.002
5,6-Epoxy alitretinoin impurity ([3]; 2M/40 ± 2° C./75 ± 5% RH): 0.010 and 0.008 and 0.007
Total related substances ([3]; 2M/40 ± 2° C./75 ± 5% RH): 0.191 and 0.192 and 0.180
4-Hydroxy alitretinoin impurity ([3]; 3M/40 ± 2° C./75 ± 5% RH): 0.003 and 0.002
4-Oxo-alitretinoin impurity ([3]; 3M/40 ± 2° C./75 ± 5% RH): 0.003 and 0.004
5,6-Epoxy alitretinoin impurity ([3]; 3M/40 ± 2° C./75 ± 5% RH): 0.008 and 0.010 and 0.006
Total related substances ([3]; 3M/40 ± 2° C./75 ± 5% RH): 0.192 and 0.205 and 0.177
4-Hydroxy alitretinoin impurity ([3]; 6M/40 ± 2° C./75 ± 5% RH): 0.002
4-Oxo-alitretinoin impurity ([3]; 6M/40 ± 2° C./75 ± 5% RH): 0.003 and 0.004
5,6-Epoxy alitretinoin impurity ([3]; 6M/40 ± 2° C./75 ± 5% RH): 0.006 and 0.007
Total related substances ([3]; 6M/40 ± 2° C./75 ± 5% RH): 0.175 and 0.188 and 0.167
Change in oxidative impurities on storage ([3]; 40±2° C./75±5% RH (Table 3), in the presence of an oxygen absorber and a silica gel desiccant): no increase in oxidative impurities
4-Hydroxy alitretinoin impurity ([3]; Initial): 0.002
4-Oxo-alitretinoin impurity ([3]; Initial): 0.002 and 0.003
5,6-Epoxy alitretinoin impurity ([3]; Initial): 0.006 and 0.009
Total related substances ([3]; Initial): 0.165 and 0.189 and 0.173
Total related substances [4]: 0.403 and 0.411 and 0.351
Compound: CC1=C(/C=C/C(C)=C\C=C\C(C)=C\C(=O)O)C(C)(C)CCC1 [Alitretinoin, (2E,4E,6Z,8E)-3,7-dimethyl-9-(2,6,6-trimethyl-1-cyclohexenyl)-2,4,6,8-nonatraenoic acid]
Decomposition [1]: decomposition was extensive
